Measurements published in PubChem BioAssay (NCI).
“And” between values parts separate entries of the source, which are not always exact repeats. Equal entries are not always repeated.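 Dose response: 5 concentrations. Exposure: 48 h. Format: 96-well plates. Endpoint: linear interpolation; highest concentration if not reached. Here, GI50 denotes the concentration required for 50% inhibition of growth. The concentration for full growth arrest is given as TGI.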

Key:
Assay in all cases: growth of human tumour cells (NCI), 48 h
[1] = system: EKVX NSCLC
[2] = system: NCI/ADR-RES ovarian
[3] = system: BT-549 breast
[4] = system: NCI-H23 lung
[5] = system: MALME-3M melanoma
[6] = system: HOP-62 NSCLC
[7] = system: SF-268 CNS
[8] = system: 786-0 renal
[9] = system: ACHN renal
[10] = system: KM12 colon

Structure (SMILES)	GI50 [1] [µM]	TGI [1]	GI50 [2]	TGI [2]	GI50 [3]	TGI [3]	GI50 [4]	TGI [4]	GI50 [5]	TGI [5]	GI50 [6]	TGI [6]	GI50 [7]	TGI [7]	GI50 [8]	TGI [8]	GI50 [9]	TGI [9]	GI50 [10]	TGI [10]
COc1cccc(/C=C2\COc3ccc(-c4ccccc4)cc3C2=O)c1	4.8	> 100 µM	3.63 µM	14.5 µM	2.09 µM	4.94 µM	3.14 µM	10 µM	2.53 µM	12.6 µM	3.91 µM	9.58 µM	3.52 µM	11.6 µM	2.63 µM	6.45 µM	2.13 µM	5.59 µM	–	–
CC(=O)[O][Hg][c]1c(C)c(C)cc(C)c1C	1.25	3.11 µM	2.96 µM	9.14 µM	1.86 µM	3.79 µM	1.03 µM	3.32 µM	1.33 µM	2.75 µM	2.02 µM	4.05 µM	0.825 µM	2.25 µM	1.76 µM	3.28 µM	3.71 µM	8.18 µM	2.22 µM	6.26 µM
COc1ccc(N=N/C(C(=O)C(F)(F)F)=C(\O)c2ccc(Cl)cc2)cc1	9.09	22.3 µM	3.56 µM	23.2 µM	7.04 µM	47.2 µM	11 µM	54.4 µM	16.1 µM	85.6 µM	15.5 µM	63.4 µM	12 µM	> 100 µM	6.63 µM	83.6 µM	6.53 µM	> 100 µM	2.61 µM	38.7 µM
c1cc2c(cn1)Nc1ccncc1S2	55.8	> 100 µM	37.1 µM	> 100 µM	59.5 µM	> 100 µM	43.4 µM	> 100 µM	> 100 µM	> 100 µM	14.9 µM	57.4 µM	30.5 µM	> 100 µM	23.7 µM	78.1 µM	26.8 µM	> 100 µM	32.3 µM	> 100 µM
CC(=O)c1c(C)[nH]c(-c2nc3ccc(N4CCN(C)CC4)cc3[nH]2)c1-c1ccccc1	2.03	> 100 µM	2.48 µM	> 100 µM	8.81 µM	29.8 µM	3.02 µM	39.3 µM	0.961 µM	12.7 µM	1.01 µM	33.5 µM	5.24 µM	39.6 µM	1.71 µM	20.5 µM	0.876 µM	12.3 µM	1.84 µM	32.6 µM
CO[C@H]1C[C@@H]2CC[C@@H](C)[C@@](O)(O2)C(=O)C(=O)N2CCCC[C@H]2C(=O)O[C@H]([C@H](C)C[C@@H]2CC[C@@H](OCCO)[C@H](OC)C2)CC(=O)[C@H](C)C=C(C)[C@@H](O)[C@@H](OC)C(=O)[C@H](C)C[C@H](C)/C=C/C=C/C=C1C	< 0.01	21.5 µM	3.26 µM	31.7 µM	< 0.01 µM	–	–	22.7 µM	< 0.01 µM	–	< 0.01 µM	19.2 µM	0.269 µM	21.1 µM	< 0.01 µM	20.7 µM	< 0.01 µM	18.8 µM	1.18 µM	21.2 µM
O=C1Cc2cc(C(=O)NC3C[C@H]4CC[C@@H](C3)N4S(=O)(=O)CC3CCN(CCCC(F)(F)F)CC3)c(Cl)cc2N1 (stereo partly drawn)	> 100	> 100 µM	> 100 µM	> 100 µM	> 100 µM	> 100 µM	> 100 µM	> 100 µM	> 100 µM	> 100 µM	> 100 µM	> 100 µM	> 100 µM	> 100 µM	> 100 µM	> 100 µM	> 100 µM	> 100 µM	> 100 µM	> 100 µM
Nc1ncnc2c1ncn2C1OC(CO)C(O)C1N (stereo not drawn)	–	> 100 µM	–	> 100 µM	–	> 100 µM	–	> 100 µM	–	> 100 µM	–	> 100 µM	–	> 100 µM	–	> 100 µM	–	> 100 µM	–	> 100 µM
Cc1cc([N+](=O)[O-])c2ccccc2[n+]1[O-]	2.77	12 µM	0.547 µM and 1.42 µM	3.45 µM and 7.68 µM	0.216 µM and 0.388 µM	0.879 µM and 1.63 µM	0.504 µM and 0.59 µM	2.51 µM and 3.75 µM	1.39 µM and 2.17 µM	3.07 µM and 4.34 µM	0.188 µM and 0.25 µM	0.835 µM and 1.13 µM	0.396 µM and 0.405 µM	5.84 µM and 5.82 µM	0.158 µM and 0.258 µM	0.483 µM and 0.75 µM	0.0758 µM and 0.0614 µM	0.394 µM and 0.721 µM	0.173 µM and 0.203 µM	0.829 µM and 1.05 µM
O=C(CC(Cl)=C(Cl)Cl)c1cccc(Cl)c1Cl	57.7	> 100 µM	85.1 µM	> 100 µM	70.6 µM	> 100 µM	63.2 µM	> 100 µM	> 100 µM	> 100 µM	82.1 µM	> 100 µM	> 100 µM	> 100 µM	44.7 µM	> 100 µM	47.7 µM	> 100 µM	> 100 µM	> 100 µM
CC1=C(Nc2ccc(N3CCN(C)CC3)cc2)C(=O)c2cncnc2C1=O	5.63	19.1 µM	3.09 µM	20.3 µM	17.1 µM	32.5 µM	6.26 µM	32.7 µM	8.96 µM	21.7 µM	19.2 µM	60.4 µM	16 µM	50.4 µM	20.4 µM	52.5 µM	2.31 µM	5.88 µM	10.1 µM	30.4 µM
CSc1ccc2c(c1)C(N1CCN(C)CC1)Cc1ccccc1S2 (stereo not drawn)	2.08	8.64 µM and 7.13 µM	1.96 µM	19 µM and 4.58 µM	2.84 µM	17.6 µM and 9.3 µM	3.22 µM	28.8 µM and 11.8 µM	–	4.28 µM and 3.41 µM	1.8 µM	23.6 µM and 3.29 µM	2.1 µM	14.7 µM and 5.55 µM	1.77 µM	19.8 µM and 3.36 µM	1.96 µM	12.2 µM and 3.95 µM	1.83 µM	7.49 µM and 3.55 µM
Cc1ccc(S(=O)(=O)NC(CN)C(=O)O)cc1 (stereo not drawn)	–	> 100 µM	–	> 100 µM	–	> 100 µM	–	> 100 µM	–	> 100 µM	–	> 100 µM	–	> 100 µM	–	> 100 µM	–	> 100 µM	–	> 100 µM
COC(=O)CSSCc1ccc([N+](=O)[O-])cc1	–	69.2 µM	–	47.1 µM	–	41.7 µM	–	> 100 µM	–	67.7 µM	–	42.4 µM	–	45.9 µM	–	65.3 µM	–	36.2 µM	–	38.9 µM
COc1cc2c3c(n(C)c(=O)c2cc1OC)-c1ccc(C#N)cc1C3=O	> 100	> 100 µM	> 100 µM	> 100 µM	> 100 µM	> 100 µM	> 100 µM	> 100 µM	> 100 µM	> 100 µM	74.1 µM	> 100 µM	> 100 µM	> 100 µM	> 100 µM	> 100 µM	> 100 µM	> 100 µM	> 100 µM	> 100 µM
C#CCOc1ccc2ncnc(Nc3ccc(NC(=O)C=C)cc3)c2c1	> 100	> 100 µM	> 100 µM	> 100 µM	39.3 µM	> 100 µM	> 100 µM	> 100 µM	6.23 µM	30.2 µM	> 100 µM	> 100 µM	71.3 µM	> 100 µM	11.9 µM	38.2 µM	28.2 µM	> 100 µM	34.6 µM	> 100 µM
Cn1cc(C2=C(c3cn(CCCCCSC(=N)N)c4ccccc34)C(=O)NC2=O)c2ccccc21	–	–	8.18 µM	21 µM	3.65 µM	7.12 µM	3.5 µM	7.56 µM	4.25 µM	8.08 µM	3.96 µM	7.59 µM	3.86 µM	7.8 µM	3.16 µM	7 µM	3.54 µM	6.94 µM	2.08 µM	5.41 µM
CCN1CCN(C(=O)[C@]23CCC(C)(C)C[C@@H]2C2=CC[C@@H]4[C@@]5(C)C/C(=C/c6ccncc6)C(=O)C(C)(C)[C@@H]5CC[C@@]4(C)[C@]2(C)CC3)CC1	1.49	3.01 µM	1.48 µM	3.17 µM	1.53 µM	3.04 µM	1.63 µM	3.16 µM	1.65 µM	3.14 µM	1.72 µM	3.3 µM	–	–	1.68 µM	3.15 µM	1.6 µM	2.95 µM	1.47 µM	2.98 µM
COc1cc(-c2nn(-c3cccc(NC(=O)c4ccc(Cl)c(C(F)(F)F)c4)c3)cc2-c2ccncc2)ccc1Cl	–	–	1.18 µM	15 µM	4.35 µM	> 32.5 µM	3.14 µM	> 32.5 µM	0.922 µM	6.68 µM	6.5 µM	> 32.5 µM	3.24 µM	> 32.5 µM	8.2 µM	> 32.5 µM	1.91 µM	> 32.5 µM	1.6 µM	> 32.5 µM
